This experiment relates to Plasmodium berghei. Briefly: Luciferase/luciferin-expressing antifolate-resistant parasites were used to infect a culture of HepG2 cells that were pre-incubated with compounds. Infected hepatocytes emit light due to the luciferase reaction. Assay results are presented as the percent inhibition of light emission compared to control. […]. The class given is functional. As to conditions: sporozoite; for IC90: read-out: LUCIFERASE INFECTION ASSAY - IC90.

Setting [1] is: read-out: LUCIFERASE INFECTION ASSAY - IC50.

For the compound `Cc1ccc(-c2cnn3c(N4CCOCC4)cc(C)nc23)cc1`, the IC90 was more than 10.7 µM. Also, the IC50 (PBLUC_HILL_SLOPE 2.15, PBLUC_R_SQUARED 0.469, read-out: LUCIFERASE INFECTION ASSAY - IC50) was found to be 5.44 µM.
With `COc1ccccc1N1CCN(C(=O)c2cc3cc(Cl)ccc3o2)CC1`, the IC90 is more than 8.9 µM. Also, the IC50 under setting [1] is more than 8.9 µM.
Take `COc1cc(CCC2CCN(c3ccc4nnc(C(F)(F)F)n4n3)CC2)cc(OC)c1`: the IC90 was more than 10 µM. Further, the IC50 (PBLUC_HILL_SLOPE 2.86, PBLUC_R_SQUARED 0.563, read-out: LUCIFERASE INFECTION ASSAY - IC50) was determined as 5.92 µM.
Take `C=CCn1c(COc2ccc(C(C)(C)C)cc2)nnc1SCC(=O)N(C)C1CCCCC1`: the IC90 was more than 10 µM. Further, for the setting “HEPG2TOX_HILL_SLOPE 8.72, HEPG2TOX_R_SQUARED 0.783, PBLUC_HILL_SLOPE 29.5, PBLUC_R_SQUARED 0.113, read-out: LUCIFERASE INFECTION ASSAY - IC50”, the IC50 is 9.61 µM.
In the case of `Cc1cc(=O)oc2cc(OCC(=O)OCC(=O)c3c(-c4ccccc4)[nH]c4ccccc34)ccc12`, the IC90 was determined as 7.83 µM. Moreover, under setting [1], the IC50 is 1.85 µM.
For the compound `CCOC(=O)c1ccc(Oc2sccc2[N+](=O)[O-])cc1`, the IC90 is more than 11.3 µM. Further, the IC50 under setting [1] is more than 11.3 µM.
Take `CCc1ccc(-c2nnc(SC(C)C(=O)NC3CCCCC3)[nH]2)cc1` (stereo not given): the IC90 is more than 10 µM. In addition, the IC50 (HEPG2TOX_HILL_SLOPE 1.62, HEPG2TOX_R_SQUARED 0.795, read-out: LUCIFERASE INFECTION ASSAY - IC50) is more than 10 µM.
In the case of `COc1ccc(-c2cnc3cnc(-c4cccc(C(N)=O)c4)cn23)cn1`, the 90% effect concentration (IC90) turned out to be 3.91 µM. In addition, for the setting “PBLUC_HILL_SLOPE 17.6, PBLUC_R_SQUARED 0.459, read-out: LUCIFERASE INFECTION ASSAY - IC50”, the IC50 stood at 3.45 µM.
As for `Cc1ccc(C(C)C)c(OCC(=O)N2CCC(c3nc4ccccc4[nH]3)CC2)c1`, the IC90 stood at 7.21 µM. Where the note is “PBLUC_HILL_SLOPE 4.62, PBLUC_R_SQUARED 0.766, read-out: LUCIFERASE INFECTION ASSAY - IC50”, the IC50 stood at 4.48 µM.
As to `CCOC(=O)C1=C(NC(=O)Nc2ccc(Cl)c(Cl)c2)Nc2ccccc2N=C1CC`, the IC90 was more than 10 µM. Further, the IC50 under setting [1] is more than 10 µM.
Turning to `CCOC(=O)c1c(C)oc(NC(=O)CSc2nnc(-c3ccccc3)n2-c2ccc(C)c(C)c2)c1C#N`, the IC90 is more than 10 µM. Also, the IC50 under setting [1] is more than 10 µM.
As for `CC(C)N1CCN(c2ccc(-c3cn4c(-c5cccc(O)c5)cnc4cn3)cc2)CC1`, the concentration for an effect of 90% (IC90) was more than 7.98 µM. For the setting “PBLUC_HILL_SLOPE 3.65, PBLUC_R_SQUARED 0.123, read-out: LUCIFERASE INFECTION ASSAY - IC50”, the IC50 was more than 7.98 µM.
Consider `CCOc1cc2c(cc1NC(=O)CCCCCn1c(=S)[nH]c3ccccc3c1=O)OC(C)C2` (stereo not given), for which the IC90 is more than 10 µM. Further, under setting [1], the IC50 is more than 10 µM.
On to `CCCCCCCCCCCc1nnc(SCc2ccccc2)n1-c1ccccc1C(F)(F)F`, for which the IC90 was more than 6.74 µM. Moreover, the IC50 (FFLUC_HILL_SLOPE 1.21, FFLUC_R_SQUARED 0.637, read-out: LUCIFERASE INFECTION ASSAY - IC50) is more than 6.74 µM.
On to `CCc1cccc2c(/C=C(\C#N)c3nc4ccccc4[nH]3)c[nH]c12`, for which the IC90 was more than 10 µM. Also, for the setting “HEPG2TOX_HILL_SLOPE 6.57, HEPG2TOX_R_SQUARED 0.521, read-out: LUCIFERASE INFECTION ASSAY - IC50”, the concentration for half-maximal inhibition (IC50) was more than 10 µM.
On to `Cc1ccc(CCC2CCN(C(=O)CCCNC3=NS(=O)(=O)c4ccccc43)CC2)cc1`, for which the IC90 was found to be 3.84 µM. For the same compound, the IC50 (HEPG2TOX_HILL_SLOPE 10.3, HEPG2TOX_R_SQUARED 0.945, PBLUC_HILL_SLOPE 12.1, PBLUC_R_SQUARED 0.567, read-out: LUCIFERASE INFECTION ASSAY - IC50) was determined as 3.2 µM.
Take `CNC(=O)c1nn(CC2CCCCC2)c2c1CC(NC1CCCC1)CC2` (stereo not given): the IC90 is more than 9.2 µM. For the setting “PBLUC_HILL_SLOPE 1.5, PBLUC_R_SQUARED 0.479, read-out: LUCIFERASE INFECTION ASSAY - IC50”, the IC50 amounted to 4.38 µM.
As for `Cc1cc(C(C)(C)C)cc(C)c1CCNC(=O)C1CCN(c2cnccn2)CC1`, the IC90 is more than 10 µM. Besides, the IC50 (HEPG2TOX_HILL_SLOPE 9.49, HEPG2TOX_R_SQUARED 0.929, PBLUC_HILL_SLOPE 9.04, PBLUC_R_SQUARED 0.464, read-out: LUCIFERASE INFECTION ASSAY - IC50) was determined as 8.99 µM.
In the case of `Cc1[nH]c2ccccc2c1C1=NNC(=NCc2ccc3c(c2)OCO3)SC1`, the IC90 was more than 10 µM. For the same compound, for the setting “FFLUC_HILL_SLOPE 2.18, FFLUC_R_SQUARED 0.288, PBLUC_HILL_SLOPE 2.54, PBLUC_R_SQUARED 0.596, read-out: LUCIFERASE INFECTION ASSAY - IC50”, the IC50 was determined as 4.55 µM.
On to `OC1CCC(Nc2ccc3ncc(Br)n3n2)CC1` (stereo not given), for which the 90% effect concentration (IC90) was more than 10.6 µM. Where the note is “HEPG2TOX_HILL_SLOPE 1.63, HEPG2TOX_R_SQUARED 0.931, read-out: LUCIFERASE INFECTION ASSAY - IC50”, the IC50 is more than 10.6 µM.
`COc1ccc(CO/N=C/NC(=O)C(c2ccc(Cl)cc2)c2nc3ccccc3nc2C(F)(F)F)cc1` (stereo not given): the IC90 was more than 6.24 µM. The IC50 (HEPG2TOX_HILL_SLOPE 1.06, HEPG2TOX_R_SQUARED 0.661, read-out: LUCIFERASE INFECTION ASSAY - IC50) was more than 6.24 µM.
In the case of `NC(=O)c1cccc(-c2ccc3ncc(-c4cccs4)n3n2)c1`, the IC90 was more than 10 µM. Moreover, under “HEPG2TOX_HILL_SLOPE 0.701, HEPG2TOX_R_SQUARED 0.861, PBLUC_HILL_SLOPE 2.21, PBLUC_R_SQUARED 0.712, read-out: LUCIFERASE INFECTION ASSAY - IC50”, the IC50 stood at 4.09 µM.
Turning to `O=C(Nc1ccc2c[nH]nc2c1)c1cccc(Oc2ccccc2)c1`, the 90% effect concentration (IC90) is more than 10 µM. For the same compound, under setting [1], the IC50 is more than 10 µM.
Regarding `CC1CCCC(C)N1C(=O)Nc1cccc(Cl)c1` (stereo not given), the IC90 is more than 12.4 µM. Under setting [1], the IC50 is more than 12.4 µM.
As for `Cc1ccc(NC(=O)N2CCCN(c3nc4ccc(Cl)cc4s3)CC2)cc1`, the IC90 is more than 8.23 µM. Besides, for the setting “HEPG2TOX_HILL_SLOPE 1.45, HEPG2TOX_R_SQUARED 0.845, PBLUC_HILL_SLOPE 2.38, PBLUC_R_SQUARED 0.538, read-out: LUCIFERASE INFECTION ASSAY - IC50”, the IC50 is 3.62 µM.
For the compound `CC(Nc1ccc2c(c1)Cc1ccccc1-2)C(=O)N1CCCC1` (stereo not given), the IC90 was more than 10 µM. In addition, the IC50 (PBLUC_HILL_SLOPE 13.8, PBLUC_R_SQUARED 0.568, read-out: LUCIFERASE INFECTION ASSAY - IC50) was 8.56 µM.
For `c1ccc2c(CSCCC34CC5CC(CC(C5)C3)C4)cccc2c1`, the IC90 was more than 10 µM. Moreover, the IC50 under setting [1] is more than 10 µM.
As to `CC12CC3CC(C1)CC(c1ccc(O)cc1)(C3)C2`, the IC90 was more than 10 µM. Further, the IC50 under setting [1] is more than 10 µM.
As to `O=C(Nc1ccc(OC(F)(F)F)cc1)Nc1cc(-c2cccs2)n[nH]1`, the IC90 was more than 8.96 µM. In addition, the IC50 under setting [1] is more than 8.96 µM.
With `CC(=O)Nc1cccc(/C(C)=N/n2c(-c3cccc(Br)c3)cs/c2=N\c2ccc(F)cc2)c1`, the IC90 amounted to 1.69 µM. Besides, the IC50 (HEPG2TOX_HILL_SLOPE 2.5, HEPG2TOX_R_SQUARED 0.833, PBLUC_HILL_SLOPE 128, PBLUC_R_SQUARED 0.253, read-out: LUCIFERASE INFECTION ASSAY - IC50) was determined as 1.66 µM.
Regarding `Cc1cccc(-n2cc(-c3ccccc3)c3c(N4CCN(CCO)CC4)ncnc32)c1`, the IC90 was more than 10 µM. Moreover, the concentration for half-maximal inhibition (IC50) under setting [1] was more than 10 µM.
For `CC(C)c1ccc(NC(=O)c2snc3ccc(Cl)cc23)cc1`, the 90% effect concentration (IC90) was determined as 6.63 µM. Further, for the setting “HEPG2TOX_HILL_SLOPE 2.78, HEPG2TOX_R_SQUARED 0.915, PBLUC_HILL_SLOPE 3.55, PBLUC_R_SQUARED 0.653, read-out: LUCIFERASE INFECTION ASSAY - IC50”, the IC50 came to 3.57 µM.
With `COc1cc(-c2nc3ccc(NC(=O)COc4ccccc4)cn3n2)cc(OC)c1OC`, the IC90 is more than 10 µM. Besides, the IC50 (PBLUC_HILL_SLOPE 1.9, PBLUC_R_SQUARED 0.239, read-out: LUCIFERASE INFECTION ASSAY - IC50) amounted to 5.59 µM.
Turning to `CN(C)S(=O)(=O)c1cccc(NC(=O)c2nc(Cl)c(Cl)c(Cl)c2Cl)c1`, the IC90 was more than 10 µM. Further, the IC50 (HEPG2TOX_HILL_SLOPE 12.2, HEPG2TOX_R_SQUARED 0.865, PBLUC_HILL_SLOPE 2.73, PBLUC_R_SQUARED 0.48, read-out: LUCIFERASE INFECTION ASSAY - IC50) is more than 10 µM.
With `CC(C)(C)NC(=S)Nc1cc(C(F)(F)F)cc(C(F)(F)F)c1`, the IC90 is more than 9.58 µM. For the same compound, the IC50 (PBLUC_HILL_SLOPE 27.4, PBLUC_R_SQUARED 0.229, read-out: LUCIFERASE INFECTION ASSAY - IC50) turned out to be 9.58 µM.
As for `N#Cc1ccc(C(=O)Nc2ccc(Br)c(C(F)(F)F)c2)cc1`, the IC90 turned out to be 9.89 µM. Moreover, the IC50 (HEPG2TOX_HILL_SLOPE 28, HEPG2TOX_R_SQUARED 0.813, PBLUC_HILL_SLOPE 18.1, PBLUC_R_SQUARED 0.807, read-out: LUCIFERASE INFECTION ASSAY - IC50) is 8.76 µM.
In the case of `CC(C)(C)c1ccc(/C=C/C(=O)NCc2ccc(NC(=O)C3CC3)cc2)cc1`, the concentration for an effect of 90% (IC90) came out at 6.63 µM. The IC50 under setting [1] stood at 2.38 µM.
As to `CNC(=O)c1ccc(CN(Cc2csc(-c3ccsc3)n2)Cc2ccco2)cc1`, the IC90 turned out to be 3.26 µM. Also, for the setting “PBLUC_HILL_SLOPE 16.0, 14.5, PBLUC_R_SQUARED 0.463, 0.641, read-out: LUCIFERASE INFECTION ASSAY - IC50”, the IC50 amounted to 2.83 µM.
Consider `N#Cc1cc(NS(=O)(=O)c2c[nH]c(C(=O)N3CCCC3)c2)ccc1Cl`, for which the IC90 is more than 10 µM. In addition, the IC50 (PBLUC_HILL_SLOPE 1.14, PBLUC_R_SQUARED 0.85, read-out: LUCIFERASE INFECTION ASSAY - IC50) was 5.33 µM.
On to `Cc1ccccc1C(C)NC(=O)c1c[nH]c(=S)n1-c1ccccc1` (stereo not given), for which the IC90 is more than 10 µM. In addition, the IC50 under setting [1] was more than 10 µM.

The values are drawn from ChEMBL document CHEMBL4483862, “Open-source discovery of chemical leads for next-generation chemoprotective antimalarials” (2018).
